A word on the Kd: it is the equilibrium constant for the complex coming apart.

Here are results for 13 molecules from patent publication US8853185B2, “Coferons and methods of making and using them” (Cornell University, priority 2008, dated 2014).

Data set [1] in a line: Dimerization of linker element precursors in aqueous solution by MS and MS/MS. It is filed as physicochemical. As to the method: The ability of precursors to linker elements to form dimers in aqueous solutions was determined by mass spectrometry (MS) and mass spectrometry/mass spectrometry (MS/MS). Linker elements that form dimers (or multimers) only as a result of the ionization during mass spectrometry can be distinguished from those that truly form dimers in aqueous solution by determination of the fragmentation during mass spectrometry/mass spectrometry.

The next data set has as its target CDK2 (Homo sapiens, UniProt P24941). The settings on record: read-out: DISSOCIATION CONSTANT (Kd); cited from earlier work.
For another data set, the target named is T1, β CATENIN (Homo sapiens, UniProt P35222).
T1 sequence (P35222 1-781): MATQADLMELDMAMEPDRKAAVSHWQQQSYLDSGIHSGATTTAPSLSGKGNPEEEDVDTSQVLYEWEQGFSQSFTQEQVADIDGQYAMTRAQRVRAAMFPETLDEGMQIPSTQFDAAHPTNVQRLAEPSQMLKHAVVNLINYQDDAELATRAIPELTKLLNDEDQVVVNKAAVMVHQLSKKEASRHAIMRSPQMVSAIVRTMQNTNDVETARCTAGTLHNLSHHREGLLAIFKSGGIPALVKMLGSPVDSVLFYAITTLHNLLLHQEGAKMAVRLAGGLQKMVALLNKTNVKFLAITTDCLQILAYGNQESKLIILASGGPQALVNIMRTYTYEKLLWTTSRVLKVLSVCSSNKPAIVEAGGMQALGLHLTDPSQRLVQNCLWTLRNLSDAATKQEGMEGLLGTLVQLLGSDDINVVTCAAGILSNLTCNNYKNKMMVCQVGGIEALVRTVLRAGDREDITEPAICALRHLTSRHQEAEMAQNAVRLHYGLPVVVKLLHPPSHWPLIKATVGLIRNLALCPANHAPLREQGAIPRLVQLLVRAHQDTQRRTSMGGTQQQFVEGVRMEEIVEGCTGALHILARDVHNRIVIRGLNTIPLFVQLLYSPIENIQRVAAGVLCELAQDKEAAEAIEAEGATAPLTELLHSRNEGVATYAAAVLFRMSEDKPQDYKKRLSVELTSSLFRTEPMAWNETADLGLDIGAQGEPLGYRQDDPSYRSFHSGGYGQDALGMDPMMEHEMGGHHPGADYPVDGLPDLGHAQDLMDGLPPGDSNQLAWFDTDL
The settings on record: read-out: DISSOCIATION CONSTANT (Kd); cited from earlier work.

Another data set addresses CaMKII. The settings on record: read-out: DISSOCIATION CONSTANT (Kd); cited from earlier work.
A further data set deals with MEK1 (Homo sapiens, UniProt Q02750). The note with it: read-out: DISSOCIATION CONSTANT (Kd); cited from earlier work.
A further data set concerns the target MEK2 (Homo sapiens, UniProt P36507). The settings on record: read-out: DISSOCIATION CONSTANT (Kd); cited from earlier work.
The next data set deals with ERK. The note with it: read-out: DISSOCIATION CONSTANT (Kd); cited from earlier work.
A further data set concerns the target Bcl-xL (Homo sapiens, UniProt Q07817). The settings on record: read-out: DISSOCIATION CONSTANT (Kd); cited from earlier work.
Where [2] appears, read: self-dimerization, MS and MS/MS.
[3] abbreviates: piperidin-2-ylmethanol with cyclohexylboronic acid.

Sequence of Bcl-xL (Q07817 whole entry, species assumed): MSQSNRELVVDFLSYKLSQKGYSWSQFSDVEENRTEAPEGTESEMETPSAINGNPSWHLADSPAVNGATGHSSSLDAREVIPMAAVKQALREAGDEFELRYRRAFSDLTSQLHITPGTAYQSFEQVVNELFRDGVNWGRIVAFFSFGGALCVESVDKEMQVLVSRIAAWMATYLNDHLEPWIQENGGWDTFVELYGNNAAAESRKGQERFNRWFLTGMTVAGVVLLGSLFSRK

In the case of `O=C(CO)CO` [1,3-dihydroxyacetone], in data set [1] (setting [2]), the “ability to form dimers in aqueous solution” value (“ability to form dimers” for short) is recorded as “exists mostly as the monomer”.
On the same count and under the same terms, to `O=C1CCCCC1O` (stereo not shown) [2-hydroxycyclohexanone] belongs “forms a dimer”.
In the case of `Cc1occc(=O)c1O` [3-hydroxy-2-methyl-4H-pyran-4-one], the “ability to form dimers” value in data set [1] (with zinc acetate, 2 molecules co-ordinating one Zn cation, MS/MS) is “form a dimer”.
Consider `Nc1ncnc2c1ncn2[C@@H]1O[C@H](COP(=O)(O)OP(=O)(O)O)[C@@H](O)[C@H]1O` [ADP], for which, on CDK2, the Kd is 2700 nM.
For the molecule `Nc1ncnc2c1ncn2[C@@H]1O[C@H](COP(=O)(O)OP(=O)(O)OP(=O)(O)O)[C@@H](O)[C@H]1O` [ATP], the Kd at CDK2 is 227 nM.
For `OB(O)C1CCCCC1` [cyclohexylboronic acid], the “ability to form dimers” value in data set [1] (setting [3]) was “form a dimer”.
Still for that read-out and setting: next, `OCC1CCCCN1` (stereo not shown) [piperidin-2-ylmethanol]: “form a dimer”.
Turning to APC: binding partner of β CATENIN, the Kd with β CATENIN is 310000 nM.
As to Calmodulin, the Kd at CaMKII is 30 nM.
ERK1: binding partner of MEK1: the Kd with MEK1 is 29000 nM.
Take ERK2: binding partner of MEK2: the Kd with MEK2 is 9000 nM.
Turning to MEK1: binding partner of ERK, on ERK, the Kd was 610 nM.
In the case of cytochrome c: binding partner of Bcl-xL, the Kd with Bcl-xL was 120 nM.
